The values below come from ChEMBL document CHEMBL3425489, “X-ray crystal structures of Escherichia coli RNA polymerase with switch region binding inhibitors enable rational design of squaramides with an improved fraction unbound to human plasma protein” (J Med Chem, 2015).

pIC50: −log10 of the molar value. In brackets after ≈: the same amount, converted by molar mass.

For series [1] the following is noted: octanol/water, pH 7.4.
Description: (§2) Partition coefficient, log D of the compound at pH 7.4 by shake flask method
Series [2] in a line: Inhibition of Escherichia coli switch region of RNA polymerase after 1 hr by transcription-coupled translation assay.
The test system of another series is Haemophilus influenzae. Description: Antibacterial activity against Haemophilus influenzae acrB by broth microdilution method. It counts as functional. Background: In broth dilution the organism is exposed to a series of concentrations in liquid medium.
Series [3] can be described thus: Equilibrium solubility of the compound in phosphate buffer by LC-MS analysis.
Another series concerns Plasma. Briefly: (§1) Fraction unbound (%) in human plasma at 10 uM by LC/MS-MS analysis. It counts as ADME, cell-free. The note with it: 10 µM.
A further series in a line: physchem. The settings on record: octanol/water, pH 7.4.
The nature of series [4]: as §1. Type of series: ADME, cell-free.

Description for physchem: as §2

`Cc1noc(C)c1S(=O)(=O)Nc1c(N2CCN(Cc3ccc(C#N)cc3)CC2)c(=O)c1=O`: the pH-dependent lipophilicity (logD) (commonly the decadic logarithm of the distribution of all forms, ionised or not, between an organic phase and buffer at a given pH) in series [1] is -1.3. Also, in series [2], the pIC50 (in general, the IC50 on a negative log10 scale, so that one unit is a factor of ten) was 5.82. In addition, in the series on Haemophilus influenzae, the MIC turned out to be 200 µM (≈ 91.1 µg/mL). Besides, the thermodynamic solubility (commonly solubility found after equilibrating the solid with the medium) in series [3] was above 1000 µM. Besides, in the series on Plasma, the Fu stood at 2.9%.
Regarding `Cc1nn(C(F)F)cc1S(=O)(=O)Nc1c(N2CCC(Cc3ccccc3)CC2)c(=O)c1=O`, the logD in series [1] is listed as -0.1. Moreover, the pIC50 in series [2] is 5.10. In addition, the MIC in the series with Haemophilus influenzae was 100 µM (≈ 46.4 µg/mL). Moreover, the solubility (thermodynamic) in series [3] was above 1000 µM. Further, the Fu with Plasma is on record as below 1%.
`O=c1c(NS(=O)(=O)c2ccccc2)c(N2CCC(Cc3ccccc3)CC2)c1=O` showed a logD in series [1] of 0.2. The pIC50 in series [2] is 5.68. For the same compound, the MIC in the series with Haemophilus influenzae is 200 µM (≈ 82.1 µg/mL). This compound also returned a thermodynamic solubility in series [3] above 1000 µM. In the series with Plasma, this compound showed a Fu below 1%.
`Cc1noc(C)c1S(=O)(=O)Nc1c(N2CCC(CCc3ccccc3)CC2)c(=O)c1=O`: the logD in series [1] is 0. This compound gave a pIC50 in series [2] of 6.49. In addition, in series [3], the thermodynamic solubility is 636 µM (≈ 282 µg/mL). This compound also showed a Fu in the series with Plasma below 1%.
In series [1], `Cc1noc(C)c1S(=O)(=O)Nc1c(N2CCC(NCc3ccc(C(F)(F)F)cc3)CC2)c(=O)c1=O` came in with a log distribution coefficient (logD) of 0.8. This compound showed a pIC50 in series [2] of 6.54. Further, the MIC with Haemophilus influenzae was found to be 25 µM (≈ 12.8 µg/mL). In series [3], this compound displayed a thermodynamic solubility above 1000 µM. The compound further registered a Fu with Plasma of 6.6%.
Take `CC(=O)NC[C@H]1CN(c2ccc(N3CCOCC3)c(F)c2)C(=O)O1` [LINEZOLID]: the MIC against Haemophilus influenzae came to 12.5 µM (≈ 4.22 µg/mL).
Compound `Cc1noc(C)c1C(=O)Nc1c(N2CCC(Cc3ccccc3)CC2)c(=O)c1=O` came in with a logD in series [1] of 1.7. Besides, the negative-log IC50 (pIC50) in series [2] is below 4.00. The compound also came in with a thermodynamic solubility in series [3] of 508 µM (≈ 200 µg/mL). In the series on Plasma, this compound yielded a Fu below 1%.
Turning to `Cc1noc(C)c1S(=O)(=O)Nc1c(N2CCC(c3ccccc3)CC2)c(=O)c1=O`, in series [1], the pH-dependent lipophilicity (logD) is -0.6. The same compound had a pIC50 in series [2] of 4.59. In addition, the thermodynamic solubility in series [3] was determined as 763 µM (≈ 317 µg/mL). The compound further showed a Fu in the series on Plasma below 1%.
In series [1], `Cc1noc(C)c1S(=O)(=O)Nc1c(N2CCCC(Cc3ccccc3)C2)c(=O)c1=O` (centres undefined) gave a logD of -0.3. In series [2], this compound gave a pIC50 of 4.15. In addition, the thermodynamic solubility in series [3] was 985 µM (≈ 423 µg/mL). Also, the Fu in the series on Plasma is reported as below 1%.
The corresponding values for `CCCC/C(C)=C/C=C(\C)C(=O)c1c(O)cc(C(C)CC/C=C/NC(=O)OC)oc1=O` (racemic) are -0.3, 6.00, 679 µM (≈ 293 µg/mL) and below 1%.
Compound `Cc1noc(C)c1S(=O)(=O)Nc1c(N2CCC(N(C)CC3CCCCC3)CC2)c(=O)c1=O` registered a logD in series [1] of -0.4. The same compound had a pIC50 in series [2] below 4.00. Besides, in series [3], the solubility (thermodynamic) worked out at 12.2 µM (≈ 5.67 µg/mL). Moreover, the Fu in the series with Plasma is recorded as 38%.
`COc1ccc(CN2CCN(c3c(NS(=O)(=O)c4c(C)noc4C)c(=O)c3=O)CC2)cc1` showed a logD in series [1] of -0.9. Also, in series [2], the negative-log IC50 (pIC50) was 5.52. The compound also had an MIC in the series on Haemophilus influenzae above 200 µM. For the same compound, in series [3], the solubility (thermodynamic) is 497 µM (≈ 229 µg/mL). Also, the Fu in the series on Plasma was 1.8%.
In series [1], `Cc1noc(C)c1S(=O)(=O)Nc1c(N2CCC(C)CC2)c(=O)c1=O` had a logD of -1. In series [2], the pIC50 is below 4.00. The thermodynamic solubility in series [3] is 773 µM (≈ 273 µg/mL). In the series with Plasma, this compound displayed a Fu of 1.6%.
As for `Cc1noc(C)c1S(=O)(=O)Nc1c(N2CCC(Cc3ccccc3)CC2)c(=O)c1=O`, the pIC50 in series [2] is 6.55. Also, the MIC against Haemophilus influenzae came to 200 µM (≈ 85.9 µg/mL). Besides, the logD in “physchem” stood at 0.1. In addition, in series [3], the thermodynamic solubility is above 1000 µM. Also, the fraction unbound – broadly, the share of the substance not bound to proteins or other matrix – at 10 µM in series [4] was below 0.01.
`Cc1noc(C)c1S(=O)(=O)Nc1c(N2CCN(CCc3ccccc3)CC2)c(=O)c1=O`: the log distribution coefficient (logD) in series [1] is -0.4. In addition, the pIC50 in series [2] was 4.37. In series [3], this compound showed a solubility (thermodynamic) of 560 µM (≈ 249 µg/mL). This compound also had a Fu in the series with Plasma of 4.9%.
`CO[C@H]1/C=C/O[C@@]2(C)Oc3c(C)c(O)c4c(O)c(c(/C=N/N5CCN(C)CC5)c(O)c4c3C2=O)NC(=O)/C(C)=C\C=C\[C@H](C)[C@H](O)[C@@H](C)[C@@H](O)[C@@H](C)[C@H](OC(C)=O)[C@@H]1C` [RIFAMPIN] showed a pH-dependent lipophilicity (logD) in series [1] of 1.3. The MIC in the series on Haemophilus influenzae is 0.025 µM (≈ 0.0206 µg/mL). In addition, the solubility (thermodynamic) in series [3] amounted to 751 µM (≈ 618 µg/mL). The Fu with Plasma came to 16.5%.
In series [1], `Cc1noc(C)c1S(=O)(=O)Nc1c(N2CCC(N(C)Cc3ccc(Cl)cc3)CC2)c(=O)c1=O` had a logD of 0.5. Also, the negative-log IC50 (pIC50) in series [2] is 6.48. For the same compound, the MIC with Haemophilus influenzae came to 50 µM (≈ 24.6 µg/mL). Moreover, the solubility (thermodynamic) in series [3] is above 1000 µM. The Fu with Plasma worked out at 3.8%.
For the compound `Cc1noc(C)c1S(=O)(=O)Nc1c(N2CCC(N(C)Cc3ccc(OC(F)F)cc3)CC2)c(=O)c1=O`, in series [2], the pIC50 was 6.37. The compound also came in with an MIC in the series with Haemophilus influenzae of 50 µM (≈ 26.2 µg/mL).
`Cc1ccc(CC2CCN(c3c(NS(=O)(=O)c4c(C)noc4C)c(=O)c3=O)CC2)cc1`: the logD in series [1] is 0.5. In addition, the negative-log IC50 (pIC50) in series [2] is 6.54. The compound also had an MIC against Haemophilus influenzae of 12.5 µM (≈ 5.54 µg/mL). The thermodynamic solubility in series [3] was above 1000 µM. This compound also returned a Fu in the series on Plasma below 1%.
Turning to `Cc1noc(C)c1S(=O)(=O)Nc1c(N2CCC(NCc3ccc(F)cc3)CC2)c(=O)c1=O`, the pH-dependent lipophilicity (logD) in series [1] is 0. Moreover, in series [2], the pIC50 was 5.57. In the series on Haemophilus influenzae, the MIC is above 200 µM. Besides, the thermodynamic solubility in series [3] was 52 µM (≈ 24.1 µg/mL). In the series on Plasma, the Fu came out at 26%.
